The source made the active and inactive calls.
Legend:
[1] = cytotoxicity toward DRD oncogenic fibroblasts, dose response, cell-based, non-viral oncogenic, luminescence (AID 1934); assay type: functional; conditions: Homo sapiens
[2] = molecular target: T1, Nuclear receptor subfamily 0 group B member 1 (Homo sapiens, UniProt P51843); assay: Luminescence-based cell-based high throughput dose response assay for inhibitors of the orphan nuclear receptor subfamily 0, group B, member 1 (DAX1; NR0B1). [Related pubchem assays (depositor defined):AID504766, AID504790]; assay type: functional
T1 sequence (P51843 whole entry): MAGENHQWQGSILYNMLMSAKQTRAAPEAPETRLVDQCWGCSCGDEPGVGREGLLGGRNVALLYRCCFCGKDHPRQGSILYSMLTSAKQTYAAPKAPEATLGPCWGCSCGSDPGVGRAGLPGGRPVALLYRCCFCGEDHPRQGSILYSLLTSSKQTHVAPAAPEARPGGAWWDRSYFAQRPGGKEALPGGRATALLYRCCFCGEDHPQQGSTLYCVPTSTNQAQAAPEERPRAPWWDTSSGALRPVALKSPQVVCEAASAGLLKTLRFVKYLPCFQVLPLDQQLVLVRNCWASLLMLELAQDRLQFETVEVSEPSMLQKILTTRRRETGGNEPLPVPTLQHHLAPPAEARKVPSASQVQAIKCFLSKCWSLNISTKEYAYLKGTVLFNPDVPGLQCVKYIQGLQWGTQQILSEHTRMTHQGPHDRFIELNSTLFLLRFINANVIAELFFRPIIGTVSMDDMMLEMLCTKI

[3] = system: BJ; assay: cells; assay type: functional, cell-based; conditions: Homo sapiens
[4] = molecular target: Genome polyprotein (dengue virus type 2, UniProt P29990); assay: Dengue-2 NS5 methyltransferase inhibitors, primary screen, biochemical, confirmation dose response (AID 588689); assay type: functional
Genome polyprotein, sequence (P29990 2492-3391 limits assumed): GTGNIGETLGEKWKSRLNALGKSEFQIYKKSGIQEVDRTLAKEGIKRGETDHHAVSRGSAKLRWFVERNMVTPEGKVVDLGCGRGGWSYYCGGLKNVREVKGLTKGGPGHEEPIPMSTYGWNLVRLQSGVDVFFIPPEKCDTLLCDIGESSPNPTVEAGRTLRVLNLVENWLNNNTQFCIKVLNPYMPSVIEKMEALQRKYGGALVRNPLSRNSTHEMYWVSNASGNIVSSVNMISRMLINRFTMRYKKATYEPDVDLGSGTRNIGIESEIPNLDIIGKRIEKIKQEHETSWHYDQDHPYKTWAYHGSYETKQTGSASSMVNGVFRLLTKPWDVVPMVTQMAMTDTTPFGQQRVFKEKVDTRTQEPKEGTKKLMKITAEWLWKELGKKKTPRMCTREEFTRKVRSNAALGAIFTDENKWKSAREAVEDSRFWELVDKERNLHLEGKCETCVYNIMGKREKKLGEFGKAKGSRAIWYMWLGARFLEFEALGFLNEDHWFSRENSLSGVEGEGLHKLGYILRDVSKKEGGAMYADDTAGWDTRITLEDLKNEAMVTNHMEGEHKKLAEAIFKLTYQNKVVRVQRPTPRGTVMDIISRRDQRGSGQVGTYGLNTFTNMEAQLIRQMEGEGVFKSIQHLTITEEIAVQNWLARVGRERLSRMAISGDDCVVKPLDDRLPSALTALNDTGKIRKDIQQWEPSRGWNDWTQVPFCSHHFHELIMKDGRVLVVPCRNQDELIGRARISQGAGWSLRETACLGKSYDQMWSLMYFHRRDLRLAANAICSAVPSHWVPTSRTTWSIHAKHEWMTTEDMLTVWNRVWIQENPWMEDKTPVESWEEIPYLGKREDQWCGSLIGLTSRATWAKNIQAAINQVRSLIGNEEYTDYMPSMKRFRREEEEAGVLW

[5] = system: BJ; assay: cytotoxicity toward BJ-TERT fibroblasts, dose response, cell-based, RAS-independent, luminescence (AID 1933); assay type: functional; conditions: Homo sapiens
[6] = system: BJ; assay: cytotoxicity toward BJ-TERT-LT-ST fibroblasts, dose response, cell-based, RAS-independent, luminescence (AID 1935); assay type: functional; conditions: Homo sapiens;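 further: BJ fibroblasts immortalized with TERT plus LT and ST oncogenes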
[7] = system: HEK293; assay: cells; assay type: functional, cell-based; conditions: Homo sapiens
[8] = inhibitors of SNCA 5'UTR-driven reporter translation, confirmation, H4 neuroglioma cells, luminescence (AID 1988); assay type: functional, cell-based
[9] = off-target signal loss in HeLa-CEM21 co-culture – HeLa F-luc CTL cells, cherry-picked, counter-screen for HIV-1 Env fusion inhibitor project, dose response (AID 652040); assay type: functional, cell-based;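 further: potency for signal decrease marking cytotoxic or nonspecific inhibition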
[10] = Luminescence Cell-Based Dose Response HTS to Identify Inhibitors of 5'UTR Stem-Loop Driven Prion Protein mRNA Translation in H4 Neuroglioblastoma Cells. [Related pubchem assays: 1827 (Project Summary), 1813 (Primary HTS)]; assay type: functional
[11] = ZM109 Env clade C HIV-1 fusion inhibitors, dose response, HeLa effector, CEM target cells, luciferase, cherry-pick (AID 652058); assay type: functional, cell-based
[12] = inhibitors of firefly luciferase expression or activity, dose response, H4 neuroglioma cells, luminescence (AID 1990); assay type: functional, cell-based
[13] = inhibitors of HIV Env-driven cell fusion, dose response, cherry-pick (AID 652057); assay type: functional, cell-based
[14] = inhibitors of clade B AD8 Env fusion, dose response, cell-based, cherry-pick (AID 652062); assay type: functional;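 further: luciferase signal from cell-cell fusion driven by HIV-1 clade B AD8 Env; potency is for inhibitors of fusion seen as a drop in luminescence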
[15] = molecular target: T2, Trace amine-associated receptor 1 (Homo sapiens, UniProt Q96RJ0); assay: Fluorescence-based cell-based high throughput dose response assay to identify agonists of the human trace amine associated receptor 1 (TAAR1).; assay type: functional
T2 sequence (Q96RJ0 whole entry): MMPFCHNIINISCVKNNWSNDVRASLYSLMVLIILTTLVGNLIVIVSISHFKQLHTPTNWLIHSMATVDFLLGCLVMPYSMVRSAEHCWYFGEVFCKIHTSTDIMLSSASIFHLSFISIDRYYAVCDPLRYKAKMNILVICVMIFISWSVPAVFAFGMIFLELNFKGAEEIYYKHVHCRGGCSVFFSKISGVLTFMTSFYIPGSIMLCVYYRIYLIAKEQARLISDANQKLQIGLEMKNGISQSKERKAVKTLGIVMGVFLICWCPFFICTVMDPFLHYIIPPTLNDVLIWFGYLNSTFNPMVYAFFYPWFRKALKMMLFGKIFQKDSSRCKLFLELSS

[16] = cells; assay type: functional, cell-based
[17] = cells; assay type: functional, cell-based; remark: listed apart in the source
[18] = molecular target: T2, Trace amine-associated receptor 1; assay: Counterscreen for agonists of the human trace amine associated receptor 1 (hTAAR1): Fluorescence-based cell-based high throughput dose response assay to identify hTAAR1 agonist that also desensitize TAAR1 receptor response.; assay type: functional
[19] = Vero cell cytotoxicity, dose response, cytotoxicity control for Vif-APOBEC3G degradation inhibitor project, Vero cells (AID 1117358); assay type: functional; conditions: Human immunodeficiency virus 1, Vero
[20] = Luminescence Cell-Based Dose Retest to Confirm Inhibitors of Cancer Stem Cells. [Related pubchem assays (depositor defined):AID2717, AID2721]; assay type: functional; conditions: Homo sapiens
[21] = inhibitors of Vif binding to APOBEC3G peptide, primary screen, biochemical, TR-FRET, GST-Vif 1-94, biotin-A3G peptide, dose response retest (AID 1117319); assay type: functional;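 further: TR-FRET signal of purified GST-Vif binding a biotinylated A3G peptide; inhibitors lower the FRET signal by blocking Vif and A3G binding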
[22] = system: HeLa; assay: HeLa cell cytotoxicity, dose response, cytotoxicity control for MITF activator project, CellTiter-Glo luminescence, cherry-pick samples (AID 540259); assay type: functional, cell-based; conditions: Homo sapiens
[23] = molecular target: T3, Rac GTPase-activating protein 1 (Homo sapiens, UniProt Q9H0H5); assay: MgcRacGAP GTPase-activating activity inhibitors, confirmation, biochemical, ADP Hunter fluorescence, primary and confirmatory (AID 624330); assay type: functional
T3 sequence (Q9H0H5 whole entry): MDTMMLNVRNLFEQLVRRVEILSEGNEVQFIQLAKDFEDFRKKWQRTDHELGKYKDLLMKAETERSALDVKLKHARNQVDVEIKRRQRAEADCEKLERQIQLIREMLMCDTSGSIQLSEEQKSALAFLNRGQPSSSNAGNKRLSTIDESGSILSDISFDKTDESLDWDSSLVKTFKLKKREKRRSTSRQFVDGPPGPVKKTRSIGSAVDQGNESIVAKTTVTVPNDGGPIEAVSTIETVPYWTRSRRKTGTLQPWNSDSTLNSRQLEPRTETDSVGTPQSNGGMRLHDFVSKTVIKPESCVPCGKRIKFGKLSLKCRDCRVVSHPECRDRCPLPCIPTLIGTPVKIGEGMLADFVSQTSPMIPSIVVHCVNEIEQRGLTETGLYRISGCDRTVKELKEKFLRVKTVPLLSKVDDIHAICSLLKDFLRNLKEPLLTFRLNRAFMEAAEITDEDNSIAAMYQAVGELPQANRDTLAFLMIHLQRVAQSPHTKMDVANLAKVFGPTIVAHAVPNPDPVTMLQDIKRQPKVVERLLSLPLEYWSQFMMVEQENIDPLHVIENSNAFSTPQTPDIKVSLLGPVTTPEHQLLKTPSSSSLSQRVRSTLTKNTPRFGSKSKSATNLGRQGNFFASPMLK

[24] = molecular target: T4, Hepatocyte nuclear factor 4-alpha (Homo sapiens, UniProt P41235); assay type: functional, cell-based;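 further: biochemical luminescence-based dose-response counterscreen measuring inhibition of HNF4 dimerization, run alongside a screen for blockers of ABHD5–perilipin-5 interaction; split luciferase complementation of HNF4 fusion proteins in cell lysate measuring dimerization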
T4 sequence (P41235 whole entry): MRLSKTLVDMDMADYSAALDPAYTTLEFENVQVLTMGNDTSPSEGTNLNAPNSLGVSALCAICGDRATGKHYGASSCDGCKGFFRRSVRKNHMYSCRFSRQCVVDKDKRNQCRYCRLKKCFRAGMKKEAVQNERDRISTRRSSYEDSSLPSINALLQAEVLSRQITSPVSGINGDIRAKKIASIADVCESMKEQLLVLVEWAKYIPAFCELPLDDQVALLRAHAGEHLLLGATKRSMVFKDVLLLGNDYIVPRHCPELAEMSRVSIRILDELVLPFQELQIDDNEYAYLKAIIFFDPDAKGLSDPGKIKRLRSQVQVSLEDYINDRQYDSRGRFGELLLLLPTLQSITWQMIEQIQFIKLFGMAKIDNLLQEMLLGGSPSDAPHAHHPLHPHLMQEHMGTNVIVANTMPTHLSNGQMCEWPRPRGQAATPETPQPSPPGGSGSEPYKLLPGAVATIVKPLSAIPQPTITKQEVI

[25] = molecular target: Paired box protein Pax-8 (Homo sapiens, UniProt Q06710); assay: inhibitors of PAX8-driven TPO luciferase reporter, dose response, RMG-I cells, cherry-pick (AID 687027); assay type: functional, cell-based;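 further: luciferase reporter driven by Pax8 target thyroperoxidase promoter measured by SteadyGlo luminescence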
Paired box protein Pax-8, sequence (Q06710 whole entry): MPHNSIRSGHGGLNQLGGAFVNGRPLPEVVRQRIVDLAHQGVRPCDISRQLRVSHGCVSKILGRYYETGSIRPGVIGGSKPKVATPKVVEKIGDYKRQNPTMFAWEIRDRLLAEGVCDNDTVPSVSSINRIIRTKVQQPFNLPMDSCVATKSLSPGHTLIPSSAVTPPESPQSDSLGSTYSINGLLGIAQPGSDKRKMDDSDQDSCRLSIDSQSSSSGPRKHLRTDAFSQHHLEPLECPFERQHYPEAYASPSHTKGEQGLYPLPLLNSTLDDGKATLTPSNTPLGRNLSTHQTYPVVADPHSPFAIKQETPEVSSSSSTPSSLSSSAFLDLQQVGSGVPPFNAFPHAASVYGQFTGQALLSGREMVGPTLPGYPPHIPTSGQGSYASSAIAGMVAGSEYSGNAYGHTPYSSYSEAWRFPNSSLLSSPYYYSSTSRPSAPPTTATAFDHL

[26] = cytotoxicity in OVCAR8 ovarian cancer cells, dose response, PAX8 project, cell-based, plate reader, dry powder samples (AID 743197); assay type: functional; conditions: OVCAR-8
[27] = A2780 ovarian cancer cell cytotoxicity, dose response, cytotoxicity control, plate reader, dry powder samples (AID 743046); assay type: functional, cell-based
[28] = P. falciparum Dd2 growth inhibitors, dose response, SYBR Green, cherry-picked samples (AID 1159567); assay type: functional, cell-based
[29] = growth suppression of beta-catenin-knockout colon cells, dose response, cell-based, HCT116, human colon tumor (AID 1045); assay type: functional;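 further: HCT116 colon tumor cells with beta catenin knocked out; cells exposed to compound for 60 hours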
[30] = growth suppression of PTEN-null colon cells, dose response, cell-based, HCT116 PTEN knockout (AID 1047); assay type: functional;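 further: HCT116 colon tumor cells with PTEN knocked out; cells exposed to compound for 60 hours before readout; potency for loss of cell viability measured by luminescence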
[31] = system: INS1; assay: beta cell apoptosis inhibitors, cytokine rescue, dose response, luminescence, retest (AID 449756); assay type: functional, cell-based; conditions: Rattus norvegicus;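 further: cell death triggered by IL-1 beta plus TNF-alpha plus IFN-gamma mixture; protective hits raise ATP signal compared with cytokine alone wells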
[32] = Shn3 3'UTR reporter inhibitors, dose response, cell-based, Clone20 osteoblasts, firefly luciferase, cherry-picked (AID 624132); assay type: functional;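 further: firefly luciferase luminescence from reporter carrying the Shn3 3'UTR in osteoblasts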
[33] = control 3'UTR Renilla luciferase suppression, dose response, counter-screen for Shn3 inhibitor project, cell-based, Clone20-Shn3RL, cherry-picked (AID 624133); assay type: functional
[34] = HepG2 cell cytotoxicity, dose response, cytotoxicity control for Shn3 inhibitor project, CellTiter-Glo, cherry-picked (AID 624134); assay type: functional, cell-based
[35] = molecular target: T5, Ubiquitin-conjugating enzyme E2 N (Homo sapiens, UniProt P61088); assay type: functional;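 further: Dose-response confirmation in a TR-FRET assay detecting UBC13-driven polyubiquitin chain formation, inhibition measured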
T5 sequence (P61088 whole entry): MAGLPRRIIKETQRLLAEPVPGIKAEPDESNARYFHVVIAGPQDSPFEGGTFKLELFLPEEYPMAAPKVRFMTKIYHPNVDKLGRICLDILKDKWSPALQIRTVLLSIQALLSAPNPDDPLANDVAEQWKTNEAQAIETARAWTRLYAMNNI

O=C(O)c1ccccc1C(=O)c1ccc(Sc2ccc(Cl)cc2)c([N+](=O)[O-])c1
EC50 [1]: > 150 µM (not active)
IC50 [2]: > 67.5 µM (inactive)
EC50 [3]: > 150 µM (not active)
IC50 [4]: 35.1 µM (active)
EC50 [5]: > 150 µM (not active)
EC50 [6]: > 150 µM (not active)
IC50 [7]: > 67.5 µM (inactive)

O=C(NCc1ccco1)c1ccc(Cn2c(=O)c3ccccc3n(Cc3cccc(F)c3)c2=O)cc1
EC50 [8]: 41.4 µM (active)
AC50 [9]: 3.52 µM (active)
EC50 [10]: > 120 µM (not active)
AC50 [11]: 5.5 µM (active)
EC50 [12]: 15.1 µM (active)
AC50 [13]: 2.17 µM (active)

COc1cc(OCC(=O)NC(C)C)cc2c1C(=O)O[C@@H](C)CCCC(=O)CCCCC2
AC50 [9]: 10.5 µM (active)
AC50 [11]: 6.68 µM (active)
AC50 [14]: 26.4 µM (active)
AC50 [13]: 6.38 µM (active)

COc1cc(CNCCc2ccccc2F)ccc1OCc1ccc(Cl)nc1
EC50 [15]: 2.83 µM (active)
IC50 [16]: 28.7 µM (inactive)
EC50 [17]: 11.1 µM (inactive)
IC50 [18]: 9.47 µM (active)
CC50 [19]: > 40 µM (active)

Cn1nc(-c2ccc(Cl)cc2)c2cc(C(=O)NCCCN3CCOCC3)sc21
AC50 [20]: 2.03 µM (active)
CC50 [19]: > 40 µM (active)
IC50 [21]: > 100 µM (active)

CN1CCSc2ccc(C(=O)Nc3cc(F)ccc3F)cc21
IC50 [2]: > 67.5 µM (inactive)
AC50 [22]: 44.2 µM (active)
IC50 [7]: > 67.5 µM (inactive)

O=C(/C(=C/c1ccccc1)n1cncn1)c1ccc(Cl)cc1Cl
IC50 [23]: 150 µM (active)
IC50 [24]: 3.22 µM (active)

CCOC(=O)CSc1nc2cc3c(cc2cc1C#N)OCCO3
IC50 [2]: > 67.5 µM (inactive)
IC50 [7]: > 67.5 µM (inactive)

O=C(CC(O)CCc1ccccc1)c1ccc(O)cc1 (configuration not stated)
IC50 [2]: > 67.5 µM (inactive)
IC50 [7]: > 67.5 µM (inactive)

C[C@@H]1CN([C@H](C)CO)C(=O)c2cc(NC(=O)Nc3ccc(F)cc3)ccc2O[C@@H](C)CCCCO[C@H]1CN(C)S(=O)(=O)c1ccc(Cl)cc1
AC50 [25]: 6.11 µM (active)
AC50 [26]: > 70 µM (inactive)
AC50 [27]: 5.81 µM (active)

O=c1c(-c2ccco2)nc2ccccc2n1C(CCc1ccccc1)c1nc2ccccc2[nH]1 (configuration not stated)
IC50 [24]: 2.54 µM (active)

CC(C)(C)NC(=O)C(c1ccncc1)n1c(=O)c(-c2ccco2)nc2ccccc21 (configuration not stated)
IC50 [24]: 8.03 µM (active)

O=C(N[C@H](C(=O)N1CCC[C@H]1C(=O)NCCc1ccccc1Cl)C1CCCCC1)C1CC1
EC50 [15]: 12.1 µM (inactive)
IC50 [16]: > 29.9 µM (inactive)
EC50 [17]: > 29.9 µM (inactive)
IC50 [18]: 8.99 µM (active)

COc1ncnc2c1ncn2CCCNCC(C)c1ccccc1 (configuration not stated)
EC50 [15]: 3.84 µM (active)
IC50 [16]: > 29.9 µM (inactive)
EC50 [17]: > 29.9 µM (inactive)
IC50 [18]: 12.8 µM (inactive)

CO[C@@H]1CN(C)C(=O)c2cc(NC(=O)c3nc4ccccc4s3)ccc2OC[C@H](C)NC[C@H]1C
AC50 [28]: 10 µM (active)
AC50 [27]: 0.437 µM (active)

Cn1nc(-c2ccc(Cl)cc2)c2cc(C(=O)NCCN3CCOCC3)sc21
IC50 [2]: > 67.5 µM (inactive)
EC50 [29]: 17 µM (active)
EC50 [30]: 22.4 µM (active)
IC50 [7]: > 67.5 µM (inactive)

COc1ccc(Nc2nc(N3CCCC3)c3ccccc3n2)cc1
AC50 [31]: 3.07 µM (active)
EC50 [15]: > 3.32 µM (active)
AC50 [32]: 3.67 µM (active)
AC50 [33]: 5.37 µM (active)
AC50 [34]: 8.46 µM (active)
IC50 [16]: 19.7 µM (inactive)
EC50 [17]: > 29.9 µM (inactive)
IC50 [18]: 7.19 µM (active)
IC50 [35]: > 20 µM (inactive)

Reference: ChEMBL document CHEMBL1201862, “PubChem BioAssay data set” (2004)
